In ChEMBL document CHEMBL4261528, “Synthesis, molecular modeling and biological evaluation of aza-flavanones as α-glucosidase inhibitors” (Medchemcomm, 2017):

Assay: Inhibition of baker's yeast alpha-glucosidase preincubated for 15 to 20 mins followed by p-nitrophenyl-alpha-D-glucopyranoside substrate addition measured after 45 to 60 mins by spectrophotometric method
Set-up: species or system Saccharomyces cerevisiae

| Compound | IC50 (read-out: IC50) [µM] | IC50 |
| --- | --- | --- |
| O=C1CC(C2CCOC2)Nc2ccccc21 (configuration not stated) | 867 | – |
| CCCCC1CC(=O)c2cc(OC)ccc2N1 (configuration not stated) | 683 | – |
| OCCN1C[C@H](O)[C@@H](O)[C@H](O)[C@H]1CO [MIGLITOL] | 462 | – |
| CCCCC1CC(=O)c2ccc(F)cc2N1 (configuration not stated) | 134 | – |
| C[C@H]1O[C@H](O[C@H]2[C@H](O)[C@@H](O)[C@@H](O[C@H]3[C@H](O)[C@@H](O)C(O)O[C@@H]3CO)O[C@@H]2CO)[C@H](O)[C@@H](O)[C@@H]1N[C@H]1C=C(CO)[C@@H](O)[C@H](O)[C@H]1O (some centres not stated) [ACARBOSE] | 360 | – |
| O=C1CC(C2CCCO2)Nc2ccccc21 (configuration not stated) | 667 | – |
| O=C1CC(C2CC2)Nc2ccccc21 (configuration not stated) | 284 | – |
| O=C1CC(C2CCCCC2)Nc2ccccc21 (configuration not stated) | 494 | – |
| OCC(CO)N[C@H]1C[C@](O)(CO)[C@@H](O)[C@H](O)[C@H]1O [VOGLIBOSE] | 325 | – |

Further lines, results first:

| IC50 (read-out: IC50) [µM] | IC50 | Compound |
| --- | --- | --- |
| 773 | – | O=C1CC(c2ccncc2)Nc2ccccc21 (configuration not stated) |
| 352 | – | O=C1CC(c2ccoc2)Nc2ccccc21 (configuration not stated) |
| 686 | – | O=C1CC(c2ccccc2)Nc2ccccc21 (configuration not stated) [Aza-flavanone] |
| 211 | – | O=C1CC(c2ccc(F)cc2F)Nc2ccccc21 (configuration not stated) |
| 487 | – | O=C1CC(c2ccco2)Nc2ccccc21 (configuration not stated) |
| 382 | – | O=C1CC(c2cccs2)Nc2ccccc21 (configuration not stated) |
| 53.5 | – | O=C1CC(c2ccc(C(F)(F)F)cc2)Nc2ccccc21 (configuration not stated) |
| 272 | – | CCC1CC(=O)c2ccccc2N1 (configuration not stated) |
| 606 | – | Cc1ccc(C2CC(=O)c3ccccc3N2)cc1C (configuration not stated) |
| 72.4 | – | O=C1CC(c2ccsc2)Nc2ccccc21 (configuration not stated) |
| 190 | – | CCCC1CC(=O)c2ccccc2N1 (configuration not stated) |
| 303 | – | COc1ccc(C2CC(=O)c3ccccc3N2)cc1 (configuration not stated) |
| – | Nd(Insoluble) | O=C1CC(c2ccc(Br)cc2)Nc2ccccc21 (configuration not stated) |
